One assay concerns THP-1. Put plainly: Antiinflammatory activity against human THP1 cells assessed as inhibition of LPS induced TNF-alpha at 40 uM preincubated for 30 mins followed by LPS stimulation measured after 24 hrs by ELISA relative to control. It counts as functional.
For assay [1], the target named is T1, Prostaglandin G/H synthase 2 (Ovis aries, UniProt P79208).
T1 sequence (P79208 whole entry): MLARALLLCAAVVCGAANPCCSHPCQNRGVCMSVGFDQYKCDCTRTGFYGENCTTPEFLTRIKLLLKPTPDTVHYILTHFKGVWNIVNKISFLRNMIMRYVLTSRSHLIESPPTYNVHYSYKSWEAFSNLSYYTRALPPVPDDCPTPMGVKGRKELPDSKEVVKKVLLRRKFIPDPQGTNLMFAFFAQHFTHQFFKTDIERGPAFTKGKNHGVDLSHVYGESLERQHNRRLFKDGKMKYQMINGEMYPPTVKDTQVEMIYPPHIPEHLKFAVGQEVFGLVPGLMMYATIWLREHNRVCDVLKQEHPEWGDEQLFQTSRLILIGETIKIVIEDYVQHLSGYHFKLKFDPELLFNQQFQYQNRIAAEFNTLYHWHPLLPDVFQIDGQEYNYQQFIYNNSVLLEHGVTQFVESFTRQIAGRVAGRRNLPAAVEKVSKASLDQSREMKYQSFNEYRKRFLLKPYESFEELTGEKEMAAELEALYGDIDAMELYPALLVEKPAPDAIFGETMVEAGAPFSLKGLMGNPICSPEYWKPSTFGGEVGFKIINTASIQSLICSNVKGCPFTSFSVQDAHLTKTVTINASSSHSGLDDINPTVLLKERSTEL
As to the kind of experiment: Inhibition of ovine COX2 by EIA.

Assay [2] is described as follows: Inhibition of ovine 5-lox by EIA. The arrangement: species or system Ovis aries.
Assay [3] concerns RAW264.7. As to the kind of experiment: Antiinflammatory activity against mouse RAW264.7 cells assessed as inhibition of LPS induced iNOS at 30 uM preincubated for 1 hr followed by LPS stimulation measured after 18 hrs relative to control. It is filed as functional.
Assay [4] concerns RAW264.7. Put plainly: Antiinflammatory activity against mouse RAW264.7 cells assessed as inhibition of LPS induced COX2 at 30 uM preincubated for 1 hr followed by LPS stimulation measured after 18 hrs relative to control. It is filed as functional.
In assay [5] the target is T1, Prostaglandin G/H synthase 2. Put plainly: Inhibition of ovine COX2.
Assay [6] has as its target T2, Prostaglandin G/H synthase 1 (Ovis aries, UniProt P05979).
T2 sequence (P05979 whole entry): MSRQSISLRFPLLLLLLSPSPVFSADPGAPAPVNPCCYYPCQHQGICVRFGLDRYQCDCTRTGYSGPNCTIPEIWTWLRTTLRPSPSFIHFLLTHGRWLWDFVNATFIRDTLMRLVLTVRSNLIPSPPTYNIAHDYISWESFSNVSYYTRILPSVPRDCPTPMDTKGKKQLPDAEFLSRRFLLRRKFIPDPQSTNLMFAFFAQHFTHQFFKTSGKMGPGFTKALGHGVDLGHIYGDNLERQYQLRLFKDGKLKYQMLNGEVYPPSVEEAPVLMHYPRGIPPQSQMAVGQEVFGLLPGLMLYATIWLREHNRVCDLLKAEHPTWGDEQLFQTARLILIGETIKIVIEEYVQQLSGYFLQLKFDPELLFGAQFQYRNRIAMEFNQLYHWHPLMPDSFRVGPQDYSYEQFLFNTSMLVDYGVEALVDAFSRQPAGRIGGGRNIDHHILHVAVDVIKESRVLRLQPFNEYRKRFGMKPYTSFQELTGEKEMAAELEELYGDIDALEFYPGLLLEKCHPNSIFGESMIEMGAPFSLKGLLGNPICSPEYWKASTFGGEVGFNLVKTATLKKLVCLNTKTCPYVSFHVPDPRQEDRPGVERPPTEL
As to the kind of experiment: Inhibition of ovine COX1.

The subject of assay [7] is RAW264.7. Put plainly: Antiinflammatory activity in mouse RAW264.7 cells assessed as inhibition of LPS-induced nitric oxide production at 50 uM preincubated for 2 hrs followed by LPS stimulation measured after 24 hrs by Griess reagent based assay relative to control. It counts as functional.
In assay [8] the test system is RAW264.7. Put plainly: Antiinflammatory activity in mouse RAW264.7 cells assessed as inhibition of LPS-induced nitric oxide production at 20 uM preincubated for 2 hrs followed by LPS stimulation measured after 24 hrs by Griess reagent based assay relative to control. It counts as functional.
In assay [9] the test system is RAW264.7. As to the kind of experiment: Antiinflammatory activity in mouse RAW264.7 cells assessed as inhibition of LPS-induced nitric oxide production at 10 uM preincubated for 2 hrs followed by LPS stimulation measured after 24 hrs by Griess reagent based assay relative to control. It is filed as functional.
Assay [10] concerns the target T3, Polyunsaturated fatty acid 5-lipoxygenase (Homo sapiens) (UniProt P09917).
T3 sequence (whole entry): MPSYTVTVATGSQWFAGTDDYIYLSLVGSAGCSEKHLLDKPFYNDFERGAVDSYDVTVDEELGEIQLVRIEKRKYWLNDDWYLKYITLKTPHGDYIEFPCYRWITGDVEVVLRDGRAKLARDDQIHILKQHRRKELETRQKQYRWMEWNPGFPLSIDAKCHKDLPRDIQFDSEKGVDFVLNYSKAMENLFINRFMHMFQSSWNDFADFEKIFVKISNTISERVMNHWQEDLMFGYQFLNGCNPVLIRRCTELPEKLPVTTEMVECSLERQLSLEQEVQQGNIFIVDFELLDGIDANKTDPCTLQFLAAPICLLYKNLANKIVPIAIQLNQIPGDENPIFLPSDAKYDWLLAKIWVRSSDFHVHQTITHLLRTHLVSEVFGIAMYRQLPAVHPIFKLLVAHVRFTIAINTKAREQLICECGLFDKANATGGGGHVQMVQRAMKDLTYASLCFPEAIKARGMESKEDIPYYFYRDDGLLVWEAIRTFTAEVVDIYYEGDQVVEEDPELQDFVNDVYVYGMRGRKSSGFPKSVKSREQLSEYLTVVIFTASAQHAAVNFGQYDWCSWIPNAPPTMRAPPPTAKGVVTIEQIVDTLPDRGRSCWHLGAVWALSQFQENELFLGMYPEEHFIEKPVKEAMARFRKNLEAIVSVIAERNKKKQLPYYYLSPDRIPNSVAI
Put plainly: Inhibition of 5-lox (unknown origin) at 20 uM relative to control.

For assay [11], the system named is RAW264.7. As to the kind of experiment: Antiinflammatory activity in mouse RAW264.7 cells assessed as inhibition of LPS-induced nitric oxide production after 24 hrs. It is filed as functional, cell-based. As to conditions: RAW264.7, 24 h.
Assay [12] is described as follows: Inhibition of soybean 15-LOX using linoleic acid as substrate preincubated for 5 mins followed by substrate addition and measured after 20 mins by spectrophotometric analysis. The arrangement: species or system Glycine max.
Assay [13] concerns the target Nitric oxide synthase, inducible (Homo sapiens, UniProt P35228). As to the kind of experiment: Inhibition of iNOS (unknown origin).
A further assay addresses Interleukin-1 beta (Homo sapiens, UniProt P01584). As to the kind of experiment: Inhibition of IL1-beta (unknown origin).

Molecules are shown by their SMILES. Values after ≈ are worked out from the molar mass of the structure shown.

Nitric oxide synthase, inducible, sequence (P35228 whole entry): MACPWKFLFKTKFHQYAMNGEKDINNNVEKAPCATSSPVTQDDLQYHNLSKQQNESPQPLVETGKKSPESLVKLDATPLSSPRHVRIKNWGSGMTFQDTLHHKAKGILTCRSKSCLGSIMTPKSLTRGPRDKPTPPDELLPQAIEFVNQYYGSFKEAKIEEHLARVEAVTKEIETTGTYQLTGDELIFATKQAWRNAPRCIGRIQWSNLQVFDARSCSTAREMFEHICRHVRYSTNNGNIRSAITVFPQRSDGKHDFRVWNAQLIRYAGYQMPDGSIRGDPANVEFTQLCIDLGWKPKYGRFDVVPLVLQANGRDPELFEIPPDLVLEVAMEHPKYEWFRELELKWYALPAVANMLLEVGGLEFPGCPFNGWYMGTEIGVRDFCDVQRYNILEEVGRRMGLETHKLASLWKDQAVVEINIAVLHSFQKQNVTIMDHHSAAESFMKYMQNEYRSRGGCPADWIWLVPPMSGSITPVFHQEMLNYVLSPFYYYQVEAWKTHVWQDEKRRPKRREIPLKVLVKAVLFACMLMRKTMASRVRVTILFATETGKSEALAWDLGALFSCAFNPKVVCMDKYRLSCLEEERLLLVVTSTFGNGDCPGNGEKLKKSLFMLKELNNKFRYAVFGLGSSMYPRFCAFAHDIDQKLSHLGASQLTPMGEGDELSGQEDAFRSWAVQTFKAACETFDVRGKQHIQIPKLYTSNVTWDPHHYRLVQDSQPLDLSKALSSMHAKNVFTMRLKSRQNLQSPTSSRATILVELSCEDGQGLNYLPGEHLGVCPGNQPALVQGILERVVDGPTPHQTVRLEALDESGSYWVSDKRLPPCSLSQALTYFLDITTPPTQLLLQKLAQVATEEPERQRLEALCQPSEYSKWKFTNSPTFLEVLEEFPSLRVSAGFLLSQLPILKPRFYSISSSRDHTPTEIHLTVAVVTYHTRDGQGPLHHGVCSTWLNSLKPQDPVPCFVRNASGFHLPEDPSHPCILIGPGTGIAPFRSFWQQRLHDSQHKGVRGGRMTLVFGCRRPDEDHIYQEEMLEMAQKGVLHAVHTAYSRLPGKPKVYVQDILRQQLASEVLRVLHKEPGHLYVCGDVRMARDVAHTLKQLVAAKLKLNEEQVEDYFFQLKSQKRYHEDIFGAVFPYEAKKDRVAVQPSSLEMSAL
Interleukin-1 beta, sequence (P01584 117-269 limits assumed): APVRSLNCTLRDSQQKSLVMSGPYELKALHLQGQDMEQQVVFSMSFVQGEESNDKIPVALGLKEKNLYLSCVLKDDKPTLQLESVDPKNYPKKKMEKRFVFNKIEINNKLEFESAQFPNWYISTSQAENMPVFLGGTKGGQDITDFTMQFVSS

For the molecule `O=C(OC1Cc2c(O)cc(O)cc2OC1c1cc(O)c(O)c(O)c1)c1cc(O)c(O)c(O)c1` (stereo unspecified), the inhibition at 40 µM in the assay on THP-1 was 39.1%.

As to `CC(C)=CCC/C(C)=C/Cc1c(O)cc(O)c(C(=O)C(C)C)c1O`, the IC50 was 29.9 µM in [1] and 2.2 µM in assay [2].

Consider `CC1(C)CC[C@]2(C(=O)O[C@@H]3O[C@H](CO)[C@@H](O)[C@H](O)[C@H]3O)CC[C@]3(C)C(=CC[C@@H]4[C@@]5(C)CC[C@H](O[C@@H]6OC[C@@H](O)[C@H](O)[C@H]6O[C@@H]6O[C@H](CO)[C@@H](O)[C@H](O)[C@H]6O)C(C)(C)[C@@H]5CC[C@]43C)[C@@H]2C1`, for which the results for the inhibition at 30 µM in the assay with RAW264.7 [3] and in the assay on RAW264.7 [4] were 88% and 54.6%, respectively.

For the molecule `CC(C)=CCCC(C(=O)O)C1CNC(=N)N1` (stereo unspecified), the IC50 in [5] was 830 µM; in assay [6], 300 µM.

In the case of `COc1cc(/C=C/c2ccccc2)c(C(=O)O)c(O)c1CC=C(C)C`, the inhibition at 50 µM in the assay on RAW264.7 [7] came to 40.9%. Also, the inhibition at 20 µM in the assay on RAW264.7 [8] was determined as 30.6%. In addition, in the assay on RAW264.7 [9], the inhibition at 10 µM is 21.2%.

Take `COc1c(O)cc2c(=O)oc3c(OC)c(O[C@@H]4O[C@H](CO)[C@@H](O)[C@H](O)[C@H]4O)cc4c(=O)oc1c2c34`: the inhibition at 40 µM with THP-1 is 47.8%.

Take `COc1cc(C2OCC3C(c4cc(OC)c(O)c(OC)c4)OCC23)cc(OC)c1O` (stereo unspecified): the inhibition in [10] is 28.5%.

Take `C=CC(C)(CCC=C(C)C)c1c(O)cc2c(c1O)C(=O)C[C@@H](c1ccc(O)c(O)c1)O2` (stereo partly specified): the IC50 with RAW264.7 [11] was determined as 3.32 µM.

Take `C=C(C)[C@H](CC=C(C)C)C[C@]12C[C@H](CC=C(C)C)C(C)(C)[C@](CC=C(C)C)(C(=O)C(C(=O)c3ccc(O)c(O)c3)=C1O)C2=O`: in assay [12], the IC50 turned out to be 0.04305 µg/mL (≈ 0.0714 µM).

For the molecule `C/C=C(\C)C(=O)O[C@H]1[C@H](OC(C)=O)[C@@]23C[C@@]1(O)O[C@H]1C[C@]4(C)C(=CC[C@H]4c4ccoc4)[C@](C)(C(=O)C[C@H]2C(C)C)C13` (stereo partly specified), the IC50 (in assay [13]; against Interleukin-1 beta) was 7.8 µM throughout.

The record behind these values is ChEMBL document CHEMBL4406802, “Human disorders associated with inflammation and the evolving role of natural products to overcome” (Eur J Med Chem, 2019).
